# Source: US20250051277A1, “DELIVERY OF THERAPEUTIC ALKALOID COMPOUNDS” (Sensorium Therapeutics, Inc., priority 2021, published 2025)
# Read-outs that look alike come from different tables or passages of the source.
# How the values were obtained:
# [1] = 5 μM
# [2] = 5 μM; remark: listed apart in the source
# [3] = format: physicochemical; settings: SGF with pepsin, pH 1.5, 37° C., 0.5 mM
# [4] = format: physicochemical; settings: DI water, 25° C., 0.5 mM
# [5] = Plasma Stability Assay of Example A3, human plasma; settings: 5 μM, 37° C., % of prodrug compound remaining
# [6] = Plasma Stability Assay of Example A3, mouse plasma; settings: 5 μM, 37° C., % of prodrug compound remaining
# [7] = 10 μM
# [8] = 10 μM; remark: listed apart in the source
smiles,measurement,setting,value
"COc1ccc([C@@]23CCC(=NNC(=O)Nc4ccc(C(=O)O)cc4)C[C@@H]2N(C)CC3)cc1OC (racemic) [Compound 259, 4-[[[(3aS,7aS)-3a-(3,4-dimethoxyphenyl)-1-methyl-2,3,4,5,7,7a-hexahydroindol-6-ylidene]amino]carbamoylamino]benzoic acid]",Mouse Plasma Prodrug (%),[1]; 0 min,100%
same,Mouse Plasma Prodrug (%),[1]; 15 min,86.2%
same,Mouse Plasma Prodrug (%),[1]; 30 min,81.0%
same,Mouse Plasma Prodrug (%),[1]; 60 min,67.6%
same,Mouse Plasma Prodrug (%),[1]; 120 min,38.7%
same,Mouse Plasma Prodrug (%),[1]; 240 min,19.8%
same,Human Plasma Prodrug (%),[2]; 0 min,100%
same,Human Plasma Prodrug (%),[2]; 15 min,>99%
same,Human Plasma Prodrug (%),[2]; 30 min,96.6%
same,Human Plasma Prodrug (%),[2]; 60 min,85.7%
same,Human Plasma Prodrug (%),[2]; 120 min,70.0%
same,Human Plasma Prodrug (%),[2]; 240 min,54.3%
same,Condition 1 Conversion (%),[3]; time 1 min,3.6%
same,Condition 1 Conversion (%),[3]; time 5 min,4.1%
same,Condition 1 Conversion (%),[3]; time 30 min,16.5%
same,Condition 1 Conversion (%),[3]; time 1 h,25%
same,Condition 1 Conversion (%),[3]; time 4 h,29.5%
same,Condition 1 Conversion (%),[3]; time 24 h,31.9%
same,Condition 2 Conversion (%),[4]; time 1 min,0%
same,Condition 2 Conversion (%),[4]; time 5 min,0%
same,Condition 2 Conversion (%),[4]; time 30 min,0%
same,Condition 2 Conversion (%),[4]; time 1 h,2%
same,Condition 2 Conversion (%),[4]; time 4 h,4.3%
same,Condition 2 Conversion (%),[4]; time 24 h,7.8%
"COc1ccc([C@@]23CCC(OC(=O)c4ccccc4C)=C[C@@H]2N(C)CC3)cc1OC [Compound 298, [(3aS,7aS)-3a-(3,4-dimethoxyphenyl)-1-methyl-3,4,5,7a-tetrahydro-2H-indol-6-yl]2-methylbenzoate]",Mouse Plasma Compound 001 (%),[1]; 15 min,34.0%
same,Mouse Plasma Compound 001 (%),[1]; 30 min,44.5%
same,Mouse Plasma Compound 001 (%),[1]; 60 min,60.1%
same,Mouse Plasma Compound 001 (%),[1]; 120 min,64.3%
same,Mouse Plasma Compound 001 (%),[1]; 240 min,64.8%
same,Human Plasma Prodrug (%),[2]; 0 min,100.0%
same,Human Plasma Prodrug (%),[2]; 15 min,>99%
same,Human Plasma Prodrug (%),[2]; 60 min,97.5%
same,Human Plasma Prodrug (%),[2]; 240 min,90.9%
same,Condition 1 Conversion (%),[3]; time 1 min,0%
same,Condition 1 Conversion (%),[3]; time 5 min,0%
same,Condition 1 Conversion (%),[3]; time 30 min,0%
same,Condition 1 Conversion (%),[3]; time 1 h,0%
same,Condition 1 Conversion (%),[3]; time 4 h,0%
same,Condition 1 Conversion (%),[3]; time 24 h,0%
same,Condition 2 Conversion (%),[4]; time 1 min,0%
same,Condition 2 Conversion (%),[4]; time 5 min,0%
same,Condition 2 Conversion (%),[4]; time 30 min,0%
same,Condition 2 Conversion (%),[4]; time 1 h,0%
same,Condition 2 Conversion (%),[4]; time 4 h,0%
same,Condition 2 Conversion (%),[4]; time 24 h,0%
"COc1ccc([C@@]23CCC(OC(=O)c4ccc(C(C)C)cc4)=C[C@@H]2N(C)CC3)cc1OC [Compound 371, (3aS,7aS)-3a-(3,4-dimethoxyphenyl)-1-methyl-2,3,3a,4,5,7a-hexahydro-1H-indol-6-yl4-isopropylbenzoate]",Mouse Plasma Compound 001 (%),[1]; 0 min,28.4%
same,Mouse Plasma Compound 001 (%),[1]; 15 min,31.54%
same,Mouse Plasma Compound 001 (%),[1]; 30 min,29.63%
same,Mouse Plasma Compound 001 (%),[1]; 60 min,30.25%
same,Mouse Plasma Compound 001 (%),[1]; 120 min,26.59%
same,Mouse Plasma Compound 001 (%),[1]; 240 min,19.82%
same,Human Plasma Prodrug (%),[5]; 0 min,100%
same,Human Plasma Prodrug (%),[5]; 15 min,99%
same,Human Plasma Prodrug (%),[5]; 30 min,92%
same,Human Plasma Prodrug (%),[5]; 60 min,87%
same,Human Plasma Prodrug (%),[5]; 120 min,78%
same,Human Plasma Prodrug (%),[5]; 240 min,27%
same,Human Plasma Compound 001 (%),[2]; 0 min,0.00%
same,Human Plasma Compound 001 (%),[2]; 60 min,2.67%
same,Human Plasma Compound 001 (%),[2]; 120 min,5.08%
same,Human Plasma Compound 001 (%),[2]; 240 min,3.85%
same,Mouse Plasma Prodrug (%),[6]; 0 min,100%
same,Mouse Plasma Prodrug (%),[6]; 15 min,10%
same,Mouse Plasma Prodrug (%),[6]; 30 min,0%
same,Mouse Plasma Prodrug (%),[6]; 60 min,0%
same,Mouse Plasma Prodrug (%),[6]; 120 min,0%
same,Mouse Plasma Prodrug (%),[6]; 240 min,0%
same,"Prodrug (%) remaining, Rat Plasma",[7]; 0 h,100.0%
same,"Prodrug (%) remaining, Rat Plasma",[7]; 10 min,5.0%
same,"Prodrug (%) remaining, Rat Plasma",[7]; 0.5 h,0.2%
same,"Prodrug (%) remaining, Rat Plasma",[7]; 1 h,0.1%
same,"Prodrug (%) remaining, Rat Plasma",[7]; 2 h,0.0%
same,"Prodrug (%) remaining, Rat Plasma",[7]; 4 h,0.0%
same,"Prodrug (%) remaining, Human Plasma",[8]; 0 h,100.0%
same,"Prodrug (%) remaining, Human Plasma",[8]; 10 min,>99%
same,"Prodrug (%) remaining, Human Plasma",[8]; 0.5 h,94.4%
same,"Prodrug (%) remaining, Human Plasma",[8]; 1 h,90.7%
same,"Prodrug (%) remaining, Human Plasma",[8]; 2 h,91.3%
same,"Prodrug (%) remaining, Human Plasma",[8]; 4 h,78.0%
"COc1ccc([C@@]23CCC(OC(=O)c4c(C)cccc4C)=C[C@@H]2N(C)CC3)cc1OC [Compound 372, (3aS,7aS)-3a-(3,4-dimethoxyphenyl)-1-methyl-2,3,3a,4,5,7a-hexahydro-1H-indol-6-yl2,6-dimethylbenzoate]",Mouse Plasma Compound 001 (%),[1]; 0 min,0%
same,Human Plasma Prodrug (%),[5]; 0 min,100%
same,Human Plasma Prodrug (%),[5]; 15 min,97%
same,Human Plasma Prodrug (%),[5]; 30 min,99%
same,Human Plasma Prodrug (%),[5]; 60 min,94%
same,Human Plasma Prodrug (%),[5]; 120 min,81%
same,Human Plasma Prodrug (%),[5]; 240 min,38%
same,Human Plasma Compound 001 (%),[2]; 0 min,0.00%
same,Mouse Plasma Prodrug (%),[6]; 0 min,100%
same,Mouse Plasma Prodrug (%),[6]; 15 min,92%
same,Mouse Plasma Prodrug (%),[6]; 30 min,91%
same,Mouse Plasma Prodrug (%),[6]; 60 min,88%
same,Mouse Plasma Prodrug (%),[6]; 120 min,73%
same,Mouse Plasma Prodrug (%),[6]; 240 min,64%
same,"Prodrug (%) remaining, Rat Plasma",[7]; 0 h,100.0%
same,"Prodrug (%) remaining, Rat Plasma",[7]; 10 min,>99%
same,"Prodrug (%) remaining, Rat Plasma",[7]; 0.5 h,>99%
same,"Prodrug (%) remaining, Rat Plasma",[7]; 1 h,>99%
same,"Prodrug (%) remaining, Rat Plasma",[7]; 2 h,98.4%
same,"Prodrug (%) remaining, Rat Plasma",[7]; 4 h,>99%
same,"Prodrug (%) remaining, Human Plasma",[8]; 0 h,100.0%
same,"Prodrug (%) remaining, Human Plasma",[8]; 10 min,>99%
same,"Prodrug (%) remaining, Human Plasma",[8]; 0.5 h,>99%
same,"Prodrug (%) remaining, Human Plasma",[8]; 1 h,>99%
same,"Prodrug (%) remaining, Human Plasma",[8]; 2 h,>99%
same,"Prodrug (%) remaining, Human Plasma",[8]; 4 h,>99%
